# Reference: US20110027354A1, “ANTI-PA[…]” (priority 2008, published 2011)
# How the values were obtained:
# mice = assay: Conditioned place preference (CPP); assay type: in vivo; details: selegiline or MPPE 2.5 or 5.0 mg/kg i.p., MA 0.5 or 1.0 mg/kg i.p.; vs. saline
# Procedure: For conditioned place preference (CPP) test, mice received an i.p. injection of saline just before entering the […] compartment. MA (0.5 or 1.0 mg/kg, i.p.), selegiline (2.5 or 5.0 mg/kg, i.p.), and MPPE (2.5 or 5.0 mg/kg, i.p.) dissolved in saline was administered immediately before the mice were placed in the white compartment. On day 1, the mice were pre-exposed to the test apparatus for 15 minutes. The guillotine style doors were raised and mice were allowed to move freely between the two compartments. On day 2, the time each mouse spent in each compartment was recorded for 15 minutes. On days 3, 5, 7, 9, 11, and 13, the mice were injected with each drug before being confined to the white compartment, the non-preferred side, for 40 minutes. On day 14, the guillotine doors were raised. The mice were initially placed in the tunnel and the time spent by the mice in the two compartments was recorded for 15 minutes. The scores were calculated from the differences in the time spent in the white compartment in the testing and pre-testing phases. Data were analyzed between 09:00 and 17:00 hours.
# phospho-PI3K = assay: Phosphorylation of PI3K (western blot); assay type: in vivo, mice; details: striatum; for effect on MPTP-induced decrease in phospho-PI3K: vs. MPTP alone
# Procedure: (§1) The western blot assays were performed as described previously (thong et al., 1997). Tissues were homogenized in lysis buffer, containing 200 mM Tris HCl (pH 6.8), 1% SDS, 5 mM ethylene glycol tetraacetic acid, 5 mM ethylenediaminetetraacetic acid, 10% glycerol, 1× phosphatase inhibitor cocktail I, 1× protease inhibitor cocktail. The supernatant fraction was subsequently centrifuged at 30,000×g for 30 min. The resulting pellet was resuspended in the sample buffer. Proteins (20-50 ug/lane) were separated by 6%, 8%, 10% or 15% sodium dodecyl sulfate-polyacrylamide gel electrophoresis and transferred onto the nitrocellulose membranes. Following transfer, the nitrocellulose membranes were preincubated with 5% non-fat milk and incubated overnight at 4° C. with anti-β-actin (Sigma, 1:50000), anti-TH (Chemicon, 1:5000), anti-TH phosphoser19 (Chemicon, 1:5000), anti-TH phosphoser31 (Chemicon, 1:500), anti-TH phosphoser40 (Chemicon, 1:500), anti-F 4/80 (Serotec, 1:500), anti-BDNF (Chemicon, 1:500), anti-GDNF (Santa-Cruz, 1:250), anti-Akt (Cell signaling, 1:1000), anti-phospho Akt ser 473 (Cell signaling, 1:1000), anti-PI3K (Cell signaling, 1:1000), anti-phospho PI3K (Cell signaling, 1:500) and anti-α-synuclein (BD Transduction, 1:500) antibody. After incubation with primary antibody, membranes were incubated with the secondary anti-rabbit IgG, Horseradish Peroxidase (1:1000 dilution, Amersham) or anti-mouse IgG, Horseradish Peroxidase (1:1000, Sigma), or anti-goat IgG, Horseradish Peroxidase (1:1000, Sigma) for 2 h, washed. Subsequently visualized with the Amersham ECL system (Amersham, Arlington Heights, Ill., USA).
# MPTP-treated mice [1] = assay: Rota-rod test in MPTP-treated mice; details: 2.5 mg/kg i.p.; for effect on MPTP-impaired Rota-rod performance: vs. MPTP alone
# Procedure: The apparatus (Ugo Basile model 7650) consisted of a base platform and a rotating rod with a nonslippery surface. The rod was placed at a height of 15 cm from the base. The rod, 30 cm in length, was divided into 5 equal sections by 6 opaque disks (so that the subjects cannot be distracted by one another). To assess motor performance, the mice were first trained on the apparatus 2 minutes at a rate 4 r.p.m. per 30 s prior to the test. The test was performed 30 minutes after training and an accelerating paradigm was applied at a rate 4 r.p.m. per 30 s, starting from 4 r.p.m. to a maximum speed of 40 r.p.m., then the rotation speed was kept constant at 40 r.p.m. for a maximum of 300 s. The duration for which the animal could maintain balance on the rotating drum was measured as the rotarod latency, with a maximal cut-off time of 300 s.
# [2] = tested on: glial cell line-derived neurotrophic factor (GDNF); assay: GDNF expression (western blot); assay type: in vivo, mice; details: striatum; for effect on MPTP-induced reduction of GDNF expression: pre-treatment, vs. MPTP alone
# Procedure: as §1
# [3] = tested on: tyrosine hydroxylase (TH); assay: Western blotting for pan-TH and TH phosphorylation; assay type: in vivo, mice; details: for effect on MPTP-induced decrease of TH phosphorylation at Ser19, Ser31 and Ser40: pre-treatment; for effect on MPTP-induced decrease of TH phosphorylation at Ser19, Ser31 and Ser40 / effect on MPTP-induced decrease of TH-immunoreactivity (TH-IR): vs. MPTP alone
# Procedure: as §1
# phospho-Akt = assay: Phosphorylation of Akt at Ser473 (western blot); assay type: in vivo, mice; details: striatum; for effect on MPTP-induced decrease in phospho-Akt: vs. MPTP alone
# Procedure: as §1
# [4] = tested on: tyrosine hydroxylase (TH); assay: TH activity; assay type: in vivo, mice; details: for TH activity: drug alone (no MPTP); for effect on MPTP-induced decrease of TH activity: one day after final MPTP, vs. MPTP alone
# [5] = tested on: tyrosine hydroxylase (TH); assay: TH-immunoreactivity by immunocytochemistry; assay type: in vivo, mice; details: for effect on MPTP-induced decrease of TH-immunoreactivity (TH-IR): immunocytochemistry (ICC), vs. MPTP alone; for TH-immunoreactivity: drug alone (no MPTP)
# Procedure: Animals were sacrified at 1 day after MPTP-treatment. They were anesthetized with 60% urethane and perfused transcardially with 200 ml of 50 mM phosphate buffered saline (PBS), followed by 50 ml of paraformaldehyde in PBS. The brain were fixed at 4° C. for 24 h in the same fixative and then cryoprotected in 30% sucrose. The brains were sectioned on a horizontal sliding microstome into 35 μm transverse free-floating sections.
# The immunocytochemistry was performed as described previously (Kim et al., 2000a; Kim et al., 2000b). Briefly, prior to incubation with the primary antibodies, sections were preincubated with 0.3% hydrogen peroxide in PBS for 30 min (to block endogenous peroxidase activity), then in PBS containing 0.4% Triton X-100 for 20 min and 1% no: mal serum for 20 min. After a 48 h incubation with the primary antibody at 4° C., sections were incubated with the secondary biotinylated antisera (1:1000 dilution; Vector, Brulingame, Calif.) for 1 h, washed, and immersed in avidin-biotin-peroxidase complex (ABC Elite kit, Vector) for 1 hr. Sections were always washed three times with PBS between each incubation step. 3,3′-Diaminobenzidine (DAB) was used as the chromogen. The quantitative analyses were performed using a computer-based image analysis system (Optimas version 6.2; Neurolucida Program) (Kim et al., 1999).
# MPTP-treated mice [6] = assay: MPTP-induced hypolocomotion (locomotor activity); assay type: in vivo; details: for effect on MPTP-induced hypolocomotor activity: 2.5 mg/kg/i.p./day×9, vs. MPTP alone
# Procedure: Locomotor activity measured for 30 min one day after the last MPTP administration using an automated video-tracking system (Noldus Information Technology, Wagenin, The Netherlands). Eight test boxes (40×40×30 cm high) were operated simultaneously by an IBM computer. Animals were studied individually during locomotion in each test box, where they were adapted for 5 min before starting the experiment. […] The distance traveled in cm by the animals in horizontal locomotor activity was analyzed. Data were collected and analyzed between 09:00 and 17:00 h (Kim et al., 2001).
# [7] = striatum and SN, vs. selegiline+MPTP
Structure (SMILES),conditioned place preference (CPP) (mice),effect on MPTP-induced decrease in phospho-PI3K (phospho-PI3K),effect on MPTP-impaired Rota-rod performance (MPTP-treated mice [1]),effect on MPTP-induced reduction of GDNF expression [2],"effect on MPTP-induced decrease of TH phosphorylation at Ser19, Ser31 and Ser40 ([3]; SN)","effect on MPTP-induced decrease of TH-immunoreactivity (TH-IR) ([3]; SN, western blotting)","effect on MPTP-induced decrease of TH phosphorylation at Ser19, Ser31 and Ser40 ([3]; striatum)","effect on MPTP-induced decrease of TH-immunoreactivity (TH-IR) ([3]; striatum, western blotting)",effect on MPTP-induced decrease in phospho-Akt (phospho-Akt),TH activity [4],effect on MPTP-induced decrease of TH activity ([4]; striatum),effect on MPTP-induced decrease of TH activity ([4]; substantia nigra (SN)),effect on MPTP-induced decrease of TH-immunoreactivity (TH-IR) ([5]; SN),TH-immunoreactivity [5],effect on MPTP-induced decrease of TH-immunoreactivity (TH-IR) ([5]; striatum),effect on MPTP-induced hypolocomotor activity (MPTP-treated mice [6]),also measured
"C#CCN(C)CCc1ccccc1 [MPPE, N-methyl-N-propynyl-2-phenylethylamine]",did not significantly change,significantly attenuated,significantly attenuated,significantly attenuated,reversed,attenuated,reversed,attenuated,significantly attenuated,did not show any significant effect,attenuated,attenuated,significantly attenuated,did not show any significant effect,attenuated,significantly attenuated,"attenuation of phospho-PI3K decrease compared with selegiline (phospho-PI3K; vs. selegiline+MPTP): more pronounced in MPPE-treated mice; attenuation of MPTP-reduced rota-rod performance compared with selegiline (MPTP-treated mice [1]; vs. selegiline-pretreated): more pronounced in the MPPE-pretreated mice than selegiline-pretreated case; enhancement of GDNF expression compared with selegiline ([2]; vs. selegiline+MPTP): more effective; effect on TH phosphorylation at Ser19, Ser31 and Ser40 compared with selegiline [3, 7]: more effective; attenuation of TH-IR decrease compared with selegiline ([3]; striatum and SN, western blotting, vs. selegiline+MPTP): more evident; attenuation of phospho-Akt decrease compared with selegiline (phospho-Akt; vs. selegiline+MPTP): more pronounced in MPPE-treated mice; attenuation of TH activity decrease compared with selegiline [4, 7]: more effective; attenuation of TH-IR decrease compared with selegiline ([5]; striatum and SN, ICC, vs. selegiline+MPTP): more evident; attenuation of MPTP-induced hypolocomotor activity compared with selegiline (MPTP-treated mice [6]; 2.5 mg/kg i.p., vs. selegiline+MPTP): more pronounced in the MPPE-pretreated mice than selegiline-pretreated case"
"C#CCN(C)[C@H](C)Cc1ccccc1 [selegiline, reference compound]",significantly increased compared with saline,significantly attenuated,significantly attenuated,significantly attenuated,reversed,attenuated,reversed,attenuated,significantly attenuated,did not show any significant effect,attenuated,attenuated,significantly attenuated,did not show any significant effect,attenuated,significantly attenuated,–
